Measured values taken from PMC9657321, “Identification of Boronate-Containing Diarylpyrimidine Derivatives as Novel HIV-1 Non-Nucleoside Reverse Transcriptase Inhibitors” (Molecules, 2022).
Read-outs that look alike come from different tables or passages of the source.

Key:
[1] = test system: HIV-1 double-mutant strain RES056 (K103N/Y181C); assay: microbe, parasite or virus in culture; assay type: cell-based; conditions: for EC50: Human immunodeficiency virus 1, MT4, read-out: EC50 RES056; for RF RES056: ratio EC50(resistant strain)/EC50(wild-type strain); for SI RES056: selectivity index, ratio CC50/EC50, RES056
Description: (§1) All data were calculated using the median optical density (OD) value of three wells.

wild-type HIV-1 (IIIB) = assay: microbe, parasite or virus in culture; assay type: cell-based; conditions: for EC50: Human immunodeficiency virus 1, MT4, MT-4 cells, HIV-1 IIIB, MTT method; for RF IIIB: ratio EC50(resistant strain)/EC50(wild-type strain); for SI IIIB: selectivity index, ratio CC50/EC50, IIIB
Description: as §1

[2] = Cytotoxicity in mock-infected MT-4 cells, MTT method; assay type: cell-based; conditions: human
Description: The 3-(4,5-dimethylthiazol-2-yl)-2,5-diphenyltetrazolium bromide (MTT) method was used to evaluate the antiviral activity and cytotoxicity of the synthesized compounds as previously described. At the beginning of each experiment, stock solutions (10× final concentration) of test compounds were added in 25 μL volumes to two series of triplicate wells for allowing the simultaneous evaluation of their effects on mock- and HIV-infected cells. The serial 5-fold dilutions of the compounds were made in flat-bottomed 96-well microtiter trays directly, including untreated control HIV-1 and mock infected cell samples for each sample using a Biomek 3000 robot (Beckman Instruments, Fullerton, CA, USA). HIV-1 (IIIB) and mutant HIV-1 strains (RES056, F227L/V106A, L100I, K103N, E138K, Y181C, and Y188L) stock (50 μL at 100–300 CCID50) (50% cell culture infectious dose) or culture medium was added to either the infected or mock-infected wells of the microtiter tray. Mock-infected cells were used to evaluate the effect on uninfected cells to assess the cytotoxicity of the test compounds. Exponentially growing MT-4 cells were centrifuged for […] at 1000 rpm (Eppendorf 5424, Hamburg, Germany) and then the supernatant was discarded. The MT-4 cells were resuspended at 6 × 10^5 cells/mL and 50 μL aliquots were transferred to the microtiter tray wells. At 5 days after infection, the viability of mock- and HIV-infected cells was determined spectrophotometrically by means of MTT assay.
The MTT assay is based on the reduction of yellow-colored MTT (Acros Organics, Geel, Belgium) by mitochondrial dehydrogenase of metabolically active cells to form a blue-purple formazan. The absorbances were read in an eight-channel computer-controlled photometer at the wavelengths of 540 and 690 nm. All data were calculated using the median optical density (OD) value of three wells.

[3] = test system: HIV-1 E138K mutant strain; assay: microbe, parasite or virus in culture; assay type: cell-based; conditions: for EC50: Human immunodeficiency virus 1, MT4, read-out: EC50 E138K; for RF E138K: ratio EC50 (resistant viral strain)/EC50 (wild-type viral strain)
Description: as §1

[4] = test system: HIV-1 F227L + V106A mutant strain; assay: microbe, parasite or virus in culture; assay type: cell-based; conditions: for EC50: Human immunodeficiency virus 1, MT4, read-out: EC50 F227L + V106A; for RF F227L + V106A: ratio EC50 (resistant viral strain)/EC50 (wild-type viral strain)
Description: as §1

[5] = test system: HIV-1 K103N mutant strain; assay: microbe, parasite or virus in culture; assay type: cell-based; conditions: for EC50: Human immunodeficiency virus 1, MT4, read-out: EC50 K103N, MT-4 cells, K103N, MTT method; for RF K103N: ratio EC50 (resistant viral strain)/EC50 (wild-type viral strain)
Description: as §1

[6] = test system: HIV-1 L100I mutant strain; assay: microbe, parasite or virus in culture; assay type: cell-based; conditions: for EC50: Human immunodeficiency virus 1, MT4, read-out: EC50 L100I; for RF L100I: ratio EC50 (resistant viral strain)/EC50 (wild-type viral strain)
Description: as §1

[7] = test system: HIV-1 Y181C mutant strain; assay: microbe, parasite or virus in culture; assay type: cell-based; conditions: for EC50: Human immunodeficiency virus 1, MT4, read-out: EC50 Y181C, MT-4 cells, Y181C, MTT method; for RF Y181C: ratio EC50 (resistant viral strain)/EC50 (wild-type viral strain)
Description: as §1

[8] = test system: HIV-1 Y188L mutant strain; assay: microbe, parasite or virus in culture; assay type: cell-based; conditions: for EC50: Human immunodeficiency virus 1, MT4, read-out: EC50 Y188L; for RF Y188L: ratio EC50 (resistant viral strain)/EC50 (wild-type viral strain)
Description: as §1

[9] = target: T1, recombinant wild-type HIV-1 RT enzyme (Human immunodeficiency virus type 1 group M subtype B, UniProt P03366); assay: HIV-1 RT inhibition assay (ELISA, Roche RT assay kit); assay type: biochemical
T1 construct: recombinant wild-type HIV-1 RT enzyme; purchased Roche (Basel, Switzerland)
Description: The HIV-1 RT inhibition assay was performed by using an RT assay kit produced by Roche (Basel, Switzerland).
The biotin-labeled dNTPs were incorporated into the cDNA chain in the presence of RT and bound to streptavidin. The washing buffer was used to wash the unbound dNTPs and add the anti-DIG-POD to the MTPs.
The peroxide substrate (ABST) solution was added to the MTPs, when the unbound anti-DIG-PODs were washed out. […] The absorbance of the sample was determined at OD405 nm using a microtiter plate ELISA reader. The percentage inhibitory activity of RT inhibitors was calculated according to the following formula: % inhibition = [O.D. value with RT but without inhibitors − O.D. value with RT and inhibitors]/[O.D. value with RT and inhibitors − O.D. value without RT and inhibitors].

[10] = mock-infected MT-4 cells, MTT method, read-out: CC50

Row | SMILES | EC50 [1] | RF RES056 [1] | EC50 (wild-type HIV-1 (IIIB)) | RF IIIB (wild-type HIV-1 (IIIB)) | CC50 at 5 days [2] | EC50 [3] | EC50 [6] | EC50 [7] | EC50 [8] | SI IIIB (wild-type HIV-1 (IIIB)) | melting point | SI RES056 [1] | also measured
1 | Cc1cc(C#N)cc(C)c1Oc1nc(Nc2ccc(B3OC(C)(C)C(C)(C)O3)cc2)nc2scnc12 [Compound 3e, 3,5-Dimethyl-4-((5-((4-(4,4,5,5-tetramethyl-1,3,2-dioxaborolan-2-yl)phenyl)amino)thiazolo [5,4-d]pyrimidin-7-yl)oxy)benzonitrile] | > 26500 nM | > 123 | 215 ± 91 nM | 1.0 | 26500 ± 1780 nM | – | – | – | – | – | – | – | –
2 | Cc1cc(C#N)cc(C)c1Oc1nc(Nc2ccc(C#N)cc2)nc(N)c1Br [ETR, etravirine, reference compound] | 61 ± 34 nM | – | 4 ± 1 nM | – | > 4600 nM | 10 ± 5 nM | 8 ± 2 nM | 16 ± 5 nM | 19 ± 7 nM | – | – | – | EC50 [4]: 26 ± 17 nM; EC50 [5]: 3 ± 8 nM
3 | Cc1cc(C#N)cc(C)c1Oc1nc(Nc2ccc(B3OC(C)(C)C(C)(C)O3)cc2)nc2ccccc12 [Compound 3g, 3,5-Dimethyl-4-((2-((4-(4,4,5,5-tetramethyl-1,3,2-dioxaborolan-2-yl)phenyl)amino)quinazolin-4-yl)oxy)benzonitrile] | > 254000 nM | > 41.1 | 6170 ± 1830 nM | 1.0 | > 254000 nM | – | – | – | – | > 41 | 147 to 149 °C | – | –
4 | Cc1cc(C#N)cc(C)c1Oc1nc(Nc2ccc(B3OC(C)(C)C(C)(C)O3)cc2)nc2ccsc12 [Compound 3a, 3,5-Dimethyl-4-((2-((4-(4,4,5,5-tetramethyl-1,3,2-dioxaborolan-2-yl)phenyl)amino)thieno [3,2-d]pyrimidin-4-yl)oxy)benzonitrile] | > 27400 nM | > 431 | 64 ± 21 nM | 1.0 | 27400 ± 1200 nM | 193 ± 77 nM | 2510 ± 155 nM | 6290 ± 3270 nM | 6020 ± 3140 nM | – | – | – | RF E138K [3]: 3.0; EC50 [4]: 4950 ± 1980 nM; RF F227L + V106A [4]: 77.8; EC50 [5]: 81 ± 8 nM; RF K103N [5]: 1.3; RF L100I [6]: 39.4; RF Y181C [7]: 98.8; RF Y188L [8]: 94.7; IC50 [9]: 354 ± 43 nM
5 | Cc1cc(C#N)cc(C)c1Oc1ccnc(Nc2ccc(B3OC(C)(C)C(C)(C)O3)cc2)n1 [Compound 3f, 3,5-Dimethyl-4-((2-((4-(4,4,5,5-tetramethyl-1,3,2-dioxaborolan-2-yl)phenyl)amino)pyrimidin-4-yl)oxy)benzonitrile] | > 30600 nM | > 206 | 149 ± 49 nM | 1.0 | 30600 ± 1920 nM | – | – | – | – | 206 | 202 to 204 °C | < 1 | –
6 | Cc1cc(C#N)cc(C)c1Oc1nc(Nc2ccc(B3OC(C)(C)C(C)(C)O3)cc2)nc2c1CCCC2 [Compound 3i, 3,5-Dimethyl-4-((2-((4-(4,4,5,5-tetramethyl-1,3,2-dioxaborolan-2-yl)phenyl)amino) -5,6,7,8-tetrahydroquinazolin-4-yl)oxy)benzonitrile] | > 27700 nM | > 145 | 191 ± 88 nM | 1.0 | 27700 ± 1270 nM | – | – | – | – | 145 | 233 to 235 °C | < 1 | –
7 | Cc1cc(C#N)cc(C)c1Oc1nc(Nc2ccc(B3OC(C)(C)C(C)(C)O3)cc2)nc2cccnc12 [Compound 3h, 3,5-Dimethyl-4-((2-((4-(4,4,5,5-tetramethyl-1,3,2-dioxaborolan-2-yl)phenyl)amino)pyrido [3,2-d]pyrimidin-4-yl)oxy)benzonitrile] | > 26000 nM | > 232 | 112 ± 24 nM | 1.0 | 26000 ± 2330 nM | – | – | – | – | 232 | 177 to 179 °C | < 1 | fold more potent than 3g (wild-type HIV-1 (IIIB)): 55 fold
8 | Cc1ccnc2c1NC(=O)c1cccnc1N2C1CC1 [NVP, nevirapine, reference compound] | > 15000 nM | 99.9 | 151 ± 37 nM | 1.0 | – | 168 nM | 623 ± 277 nM | 5060 ± 922 nM | 9080 ± 2410 nM | – | – | – | RF E138K [3]: 1.1; EC50 [4]: 8050 ± 3540 nM; RF F227L + V106A [4]: 53.5; RF K103N [5]: 26.1; RF L100I [6]: 4.1; RF Y181C [7]: 33.6; RF Y188L [8]: 60.4; CC50 at 5 days [2, 10]: > 15000 nM
9 | Cc1cc(C#N)cc(C)c1Oc1nc(Nc2ccc(B3OC(C)(C)C(C)(C)O3)cc2)nc2ncsc12 [Compound 3d, 3,5-Dimethyl-4-((5-((4-(4,4,5,5-tetramethyl-1,3,2-dioxaborolan-2-yl)phenyl)amino)thiazolo [4,5-d]pyrimidin-7-yl)oxy)benzonitrile] | > 24100 nM | > 201 | 120 ± 56 nM | 1.0 | 24100 ± 3760 nM | – | – | – | – | 201 | 117 to 119 °C | < 1 | –
10 | O=C1Nc2ccc(Cl)cc2[C@@](C#CC2CC2)(C(F)(F)F)O1 [EFV, efavirenz, reference compound] | 337 ± 149 nM | – | 3 ± 1 nM | – | – | 6 ± 2 nM | 32 ± 8 nM | 5 ± 2 nM | 261 ± 118 nM | – | – | – | EC50 [5]: 71 ± 20 nM; CC50 at 5 days [2, 10]: > 6350 nM
11 | Cc1cc(C#N)cc(C)c1Oc1nc(Nc2ccc(B3OC(C)(C)C(C)(C)O3)cc2)nc2c1SCCC2 [Compound 3j, 3,5-Dimethyl-4-((2-((4-(4,4,5,5-tetramethyl-1,3,2-dioxaborolan-2-yl)phenyl)amino) -7,8-dihydro-6H-thiopyrano [3,2-d]pyrimidin-4-yl)oxy)benzonitrile] | > 25900 nM | > 184 | 141 ± 53 nM | 1.0 | 25900 ± 1410 nM | – | – | – | – | 184 | 201 to 203 °C | < 1 | –
12 | Cc1cc(C#N)cc(C)c1Oc1nc(Nc2ccc(B3OC(C)(C)C(C)(C)O3)cc2)nc2sccc12 [Compound 3b, 3,5-Dimethyl-4-((2-((4-(4,4,5,5-tetramethyl-1,3,2-dioxaborolan-2-yl)phenyl)amino)thieno [2,3-d]pyrimidin-4-yl)oxy)benzonitrile] | 174000 ± 34500 nM | 134 | 1300 ± 275 nM | 1.0 | > 254000 nM | – | – | – | – | – | – | – | –
